Earlier results, collected in publication PMC10842190 (ACS sensors, 2023).

Key:
[1] = test system: damaged collagen triple helices

## O=C(O)[C@@H]1C[C@H](F)CN1 [H-flp-OH, (2S,4S)-4-fluoroproline]
Human cells
  Toxicity to human cells: not toxic

## (Gly-Ser)2-Gly-(Hyp-flp-Gly)7
[1]
  Annealing to damaged collagen triple helices: cannot anneal

## (Gly-Ser)2-Gly-(flp-Hyp-Gly)7
[1]
  Annealing to damaged collagen triple helices: can anneal
